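Exposure lasted 48 hours, with cells grown in 96-well plates and compounds tested at five concentrations. GI50 = concentration required for 50% inhibition of growth.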 Calls of active or inactive are those of the source. Cut-off read from the data, not from the text of the source: active = GI50 up to about 1.1 µM and inactive = higher.
Columns and labels:
Assay in all cases: DTP human tumour cell line panel, 48 h
UACC-62 = tested on: UACC-62
MOLT-4 = tested on: MOLT-4
MDA-N = tested on: MDA-N
A549 = tested on: A549
SNB-19 = tested on: SNB-19
SF-268 = tested on: SF-268
SK-MEL-5 = tested on: SK-MEL-5
Hs-578T = tested on: Hs-578T
CAKI-1 = tested on: CAKI-1
K562 = tested on: K562
786-0 = tested on: 786-0
PC-3 = tested on: PC-3
MDA-MB-435 = tested on: MDA-MB-435
KM12 = tested on: KM12
SN12C = tested on: SN12C
NCI/ADR-RES = tested on: NCI/ADR-RES
RXF 393 = tested on: RXF 393
UACC-257 = tested on: UACC-257
RPMI-8226 = tested on: RPMI-8226

COC1=C(OC)C(=O)C(Cc2c(Cl)nc3sc(C)cn23)=C(C)C1=O
GI50 (UACC-62): 11.6 µM (inactive)
GI50 (MOLT-4): 1.29 µM (inactive)
GI50 (MDA-N): 15.8 µM (inactive)
GI50 (A549): 17.2 µM (inactive)
GI50 (SNB-19): 17.9 µM (inactive)
GI50 (SF-268): 16.6 µM (inactive)
GI50 (SK-MEL-5): 11.2 µM (inactive)
GI50 (Hs-578T): 19.7 µM (inactive)
GI50 (CAKI-1): 24.5 µM (inactive)
GI50 (K562): 11.9 µM (inactive)
GI50 (786-0): 19.9 µM (inactive)
GI50 (PC-3): 16 µM (inactive)
GI50 (MDA-MB-435): 18.2 µM (inactive)
GI50 (KM12): 13.3 µM (inactive)
GI50 (SN12C): 15.9 µM (inactive)
GI50 (NCI/ADR-RES): 14.6 µM (inactive)
GI50 (RXF 393): 20.3 µM (inactive)
GI50 (UACC-257): 10.4 µM (inactive)
GI50 (RPMI-8226): 11.2 µM (inactive)

CCCC(=O)[O-].[Na+] [SODIUM BUTYRATE]
GI50 (UACC-62): 1650 µM (inactive)
GI50 (MOLT-4): 3730 µM (inactive)
GI50 (MDA-N): 3580 µM (inactive)
GI50 (A549): 7830 µM (inactive)
GI50 (SNB-19): 8170 µM (inactive)
GI50 (SF-268): 8280 µM (inactive)
GI50 (SK-MEL-5): 635 µM (inactive)
GI50 (Hs-578T): 251 µM (inactive)
GI50 (CAKI-1): 2770 µM (inactive)
GI50 (K562): 1000 µM (inactive)
GI50 (786-0): 10600 µM (inactive)
GI50 (PC-3): 7100 µM (inactive)
GI50 (MDA-MB-435): 3470 µM (inactive)
GI50 (KM12): 9440 µM (inactive)
GI50 (SN12C): 5310 µM (inactive)
GI50 (NCI/ADR-RES): 843 µM (inactive)
GI50 (RXF 393): 8390 µM (inactive)
GI50 (UACC-257): 1000 µM (inactive)
GI50 (RPMI-8226): 243 µM (inactive)

CCOC(=O)c1c(N2CCCC2)nsc1Nc1ccc(F)cc1
GI50 (UACC-62): 45.4 µM (inactive)
GI50 (MOLT-4): 23.9 µM (inactive)
GI50 (MDA-N): 34.9 µM (inactive)
GI50 (A549): 27.9 µM (inactive)
GI50 (SNB-19): > 100 µM (inactive)
GI50 (SF-268): 73.6 µM (inactive)
GI50 (SK-MEL-5): 18 µM (inactive)
GI50 (Hs-578T): 40.9 µM (inactive)
GI50 (CAKI-1): 37.5 µM (inactive)
GI50 (K562): 29.8 µM (inactive)
GI50 (786-0): 26.1 µM (inactive)
GI50 (PC-3): 20.4 µM (inactive)
GI50 (MDA-MB-435): 28.8 µM (inactive)
GI50 (KM12): 42.2 µM (inactive)
GI50 (SN12C): 36.3 µM (inactive)
GI50 (NCI/ADR-RES): 34 µM (inactive)
GI50 (RXF 393): 13.6 µM (inactive)
GI50 (UACC-257): 45.1 µM (inactive)
GI50 (RPMI-8226): 36.6 µM (inactive)

O=C(Cc1ccc(Cl)cc1)Nc1ccc2oc(-c3ccccc3)nc2c1
GI50 (UACC-62): > 100 µM (inactive)
GI50 (MOLT-4): > 100 µM (inactive)
GI50 (MDA-N): > 100 µM (inactive)
GI50 (A549): > 100 µM (inactive)
GI50 (SNB-19): 38.9 µM (inactive)
GI50 (SF-268): 74 µM (inactive)
GI50 (SK-MEL-5): > 100 µM (inactive)
GI50 (Hs-578T): > 100 µM (inactive)
GI50 (CAKI-1): > 100 µM (inactive)
GI50 (K562): > 100 µM (inactive)
GI50 (786-0): 57 µM (inactive)
GI50 (PC-3): > 100 µM (inactive)
GI50 (MDA-MB-435): > 100 µM (inactive)
GI50 (KM12): > 100 µM (inactive)
GI50 (SN12C): 84.9 µM (inactive)
GI50 (NCI/ADR-RES): 57.8 µM (inactive)
GI50 (RXF 393): > 100 µM (inactive)
GI50 (UACC-257): > 100 µM (inactive)
GI50 (RPMI-8226): > 100 µM (inactive)

N=C(N)SC1c2ccccc2-c2cc([N+](=O)[O-])ccc21 (centres undefined)
GI50 (UACC-62): 2.86 µM (inactive)
GI50 (MOLT-4): 3.52 µM (inactive)
GI50 (MDA-N): 3 µM (inactive)
GI50 (A549): 4.33 µM (inactive)
GI50 (SNB-19): 3.66 µM (inactive)
GI50 (SF-268): 4.48 µM (inactive)
GI50 (SK-MEL-5): 3.08 µM (inactive)
GI50 (Hs-578T): 3.1 µM (inactive)
GI50 (CAKI-1): 6.1 µM (inactive)
GI50 (K562): 3.89 µM (inactive)
GI50 (786-0): 4.67 µM (inactive)
GI50 (PC-3): 3.78 µM (inactive)
GI50 (MDA-MB-435): 1.92 µM (inactive)
GI50 (KM12): 3.23 µM (inactive)
GI50 (SN12C): 8.51 µM (inactive)
GI50 (NCI/ADR-RES): 3.01 µM (inactive)
GI50 (RXF 393): 3.5 µM (inactive)
GI50 (UACC-257): 7.45 µM (inactive)
GI50 (RPMI-8226): 4.2 µM (inactive)

Nc1nc2c(c(-c3cccc(Cl)c3)n1)COC/C2=C\c1cccc(Cl)c1
GI50 (UACC-62): > 100 µM (inactive)
GI50 (MOLT-4): > 100 µM (inactive)
GI50 (MDA-N): > 100 µM (inactive)
GI50 (SNB-19): > 100 µM (inactive)
GI50 (SF-268): > 100 µM (inactive)
GI50 (SK-MEL-5): > 100 µM (inactive)
GI50 (Hs-578T): 45.6 µM (inactive)
GI50 (CAKI-1): > 100 µM (inactive)
GI50 (K562): > 100 µM (inactive)
GI50 (786-0): 15.6 µM (inactive)
GI50 (PC-3): > 100 µM (inactive)
GI50 (MDA-MB-435): > 100 µM (inactive)
GI50 (KM12): 85.1 µM (inactive)
GI50 (SN12C): > 100 µM (inactive)
GI50 (NCI/ADR-RES): > 100 µM (inactive)
GI50 (RXF 393): > 100 µM (inactive)
GI50 (UACC-257): 47.2 µM (inactive)
GI50 (RPMI-8226): > 100 µM (inactive)

C#CC(O)/C=C/C(O)CCCC(O)CC#CC(O)C#CCCCCC(O)/C=C/CCCC(=O)CCCCCCCCCCCCCCCC(O)C(O)C#CC(=O)O (centres undefined)
GI50 (UACC-62): > 25 µM (inactive)
GI50 (MOLT-4): > 25 µM (inactive)
GI50 (MDA-N): > 25 µM (inactive)
GI50 (A549): > 25 µM (inactive)
GI50 (SNB-19): > 25 µM (inactive)
GI50 (SF-268): > 25 µM (inactive)
GI50 (SK-MEL-5): > 25 µM (inactive)
GI50 (Hs-578T): > 25 µM (inactive)
GI50 (CAKI-1): > 25 µM (inactive)
GI50 (K562): > 25 µM (inactive)
GI50 (786-0): > 25 µM (inactive)
GI50 (PC-3): > 25 µM (inactive)
GI50 (MDA-MB-435): > 25 µM (inactive)
GI50 (KM12): > 25 µM (inactive)
GI50 (SN12C): > 25 µM (inactive)
GI50 (NCI/ADR-RES): > 25 µM (inactive)
GI50 (RXF 393): 9.64 µM (inactive)
GI50 (UACC-257): > 25 µM (inactive)
GI50 (RPMI-8226): > 25 µM (inactive)

C[C@]12c3c4cc(NC(=O)C(=O)NCc5ccc(-c6ccccn6)nc5)cc3Oc3cc(NC(=O)C(=O)NCc5ccc(-c6ccccn6)nc5)cc(c31)OC1C=C(NC(=O)C(=O)NCc3ccc(-c5ccccn5)nc3)C=C(O4)C12 (some centres undefined)
GI50 (UACC-62): 24.5 µM (inactive)
GI50 (MOLT-4): 12.6 µM (inactive)
GI50 (MDA-N): 34 µM (inactive)
GI50 (A549): 86.5 µM (inactive)
GI50 (SNB-19): > 100 µM (inactive)
GI50 (SF-268): 16.8 µM (inactive)
GI50 (SK-MEL-5): 35.3 µM (inactive)
GI50 (Hs-578T): > 100 µM (inactive)
GI50 (CAKI-1): 21.2 µM (inactive)
GI50 (K562): 84.9 µM (inactive)
GI50 (786-0): 18.1 µM (inactive)
GI50 (PC-3): 61.5 µM (inactive)
GI50 (MDA-MB-435): 97.9 µM (inactive)
GI50 (KM12): 16.3 µM (inactive)
GI50 (SN12C): 40.9 µM (inactive)
GI50 (NCI/ADR-RES): 49.7 µM (inactive)
GI50 (RXF 393): > 100 µM (inactive)
GI50 (UACC-257): 52.2 µM (inactive)
GI50 (RPMI-8226): 42.1 µM (inactive)

Cn1/c(=N\S(=O)(=O)c2ccccc2)n(S(=O)(=O)c2ccccc2)c2ccccc21
GI50 (UACC-62): > 100 µM (inactive)
GI50 (MOLT-4): 42.9 µM (inactive)
GI50 (MDA-N): 61.5 µM (inactive)
GI50 (A549): 47.5 µM (inactive)
GI50 (SNB-19): 89.3 µM (inactive)
GI50 (SF-268): 54.1 µM (inactive)
GI50 (SK-MEL-5): 35.7 µM (inactive)
GI50 (Hs-578T): 41.8 µM (inactive)
GI50 (CAKI-1): > 100 µM (inactive)
GI50 (K562): 39.9 µM (inactive)
GI50 (786-0): 88.5 µM (inactive)
GI50 (PC-3): 29.5 µM (inactive)
GI50 (MDA-MB-435): 58.9 µM (inactive)
GI50 (KM12): 26.2 µM (inactive)
GI50 (SN12C): 87.3 µM (inactive)
GI50 (NCI/ADR-RES): 38.6 µM (inactive)
GI50 (RXF 393): 95.5 µM (inactive)
GI50 (UACC-257): > 100 µM (inactive)
GI50 (RPMI-8226): 48.1 µM (inactive)

O=Cc1ccc2c(c1)CC1(C2)Cc2ccc(C=O)cc2C1
GI50 (UACC-62): 6.76 µM (inactive)
GI50 (MOLT-4): 2.77 µM (inactive)
GI50 (MDA-N): 2.45 µM (inactive)
GI50 (A549): 40.5 µM (inactive)
GI50 (SNB-19): 25.1 µM (inactive)
GI50 (SF-268): 13.4 µM (inactive)
GI50 (SK-MEL-5): 5.28 µM (inactive)
GI50 (Hs-578T): 3.26 µM (inactive)
GI50 (CAKI-1): 44.9 µM (inactive)
GI50 (K562): 2.89 µM (inactive)
GI50 (786-0): 7.45 µM (inactive)
GI50 (PC-3): 17.1 µM (inactive)
GI50 (MDA-MB-435): 2.62 µM (inactive)
GI50 (KM12): 28.1 µM (inactive)
GI50 (SN12C): 28.2 µM (inactive)
GI50 (NCI/ADR-RES): 4.88 µM (inactive)
GI50 (RXF 393): 3.61 µM (inactive)
GI50 (UACC-257): 18.8 µM (inactive)
GI50 (RPMI-8226): 0.274 µM (active)

From ChEMBL document CHEMBL1201862, “PubChem BioAssay data set” (2004)
